How the values were obtained:
HaCaT cells [1] = assay: Toxicity on cells, MTT assay (Example 4, FIG. 3); type: cell-based, human; conditions: 1 day exposure
Experimental: Toxicity of test compounds on uninfected cell monolayers was measured using the standard tetrazolium dye MTT.
Test of various agents (BP: Benzoyl peroxide), at the indicated concentrations on triplicates of HaCaT cells in 96-well plates (FIG. 3).
Toxicity on cells (left side of panel): Cell monolayers were exposed to agents as indicated, and 1 day later, cellular viability was analysed by a standard MTT assay (control OD was between 1.15 and 1.3).

Vaccinia virus [2] = type: cell-based
Vaccinia virus [3] = assay: Direct virocidal effect on Vaccinia virus, 24 h exposure, BS-C-1 plaque assay (Example 6, FIG. 5); type: cell-based; conditions: 50 μM, 24 h at 37° C.
Experimental: Direct virocidal effect of various agents on Vaccinia virus (24 h exposure) Triplicates of Vaccinia virus in a 96-well plate were incubated with agents at 50 μM final concentration for 24 h at 37° C. After incubation, virus was diluted 1000-fold and quantified in a standard 24-well BS-C-1 plaque assay.
The various agents used were as follows: BP: Benzoyl peroxide, D: Dicoumarol, DNCB: Dinitrochlorobenzene, DNFB: Dinitrofluorobenzene, K1: Vitamin K1, K2: Vitamin K2, Menadione (M is fresh, M* is Menadione kept at RT for 2 months), MBS: Menadione bisulfite and Control.

Vaccinia virus WR = type: cell-based
Molluscum contagiosum = assay: Treatment of a patient with Molluscum contagiosum lesions (topical painting); type: in vivo, human; conditions: 50 mM in DMSO painted on lesions, one to two times per day for 5 days, after 4 weeks
Experimental: A patient, previously treated for Molluscum contagiosum infection with curettage, had two recurrences of Molluscum contagiosum. In each instance, a number of early lesions, which where in the elbow region or the lower jaw region respectively, were treated one to two times per day for 5 consecutive days. Treatment consisted of painting the lesions with a cotton stick, applying a solution of 50 mM Menadione dissolved in DMSO to the tip of the lesion. […] Concentrations of Menadione, its analogues and additional compounds used in this invention are as indicated below: […]

HaCaT cells [4] = conditions: 25 μM, 1 day, MTT

Structure (SMILES)	cell toxicity (HaCaT cells [1])	virus replication (Vaccinia virus [2])	reduction of virus infectivity (direct virocidal effect) (Vaccinia virus [3])	virus progeny (Vaccinia virus WR)	state of the skin after treatment of Molluscum contagiosum lesions (Molluscum contagiosum)	effect on cell viability (HaCaT cells [4])
O=C(OOC(=O)c1ccccc1)c1ccccc1 [BP, Benzoyl peroxide]	dose-dependent cell toxicity	inhibition of virus replication	43%			
O=c1oc2ccccc2c(O)c1Cc1c(O)c2ccccc2oc1=O [Dicoumarol]	dose-dependent cell toxicity	inhibition of virus replication				
Oc1ccc(O)cc1 [Hydroquinone]	no effect	no effect				
CC1(S(=O)(=O)[O-])CC(=O)c2ccccc2C1=O.[Na+] (centres unmarked) [Menadione bisulfite]	dose-dependent cell toxicity	inhibition of virus replication	95%	reduced virus progeny in a dose-dependend manner		
CC1=CC(=O)c2ccccc2C1=O [Menadione, 2-methyl-1,4-naphthoquinone]				reduced virus progeny in a dose-dependend manner	normal and without scar or discoloration	< 30%

Source: patent publication US20130224286A1, “METHODS AND COMPOSITIONS FOR TREATING POX VIRUS INFECTIONS” (priority 2010, published 2013)
